Experimental data as given in the RepoRT retention time repository (doi:10.1016/j.foodchem.2021.129757).

How the values were obtained:
Settings in all cases: stereoisomer not certain
[1] = RP, Waters ACQUITY UPLC BEH Shield RP18, 100 × 2.1 mm, 1.7 µm, 30 °C, 0.6 mL/min, estimated dead time 0.37 min; A: water + 0.1% formic acid, pH 3; B: acetonitrile + 0.1% formic acid, pH 3; gradient (min/%B) 0/0 2/0 7/10 22/95 22.1/0 26/0
[2] = RP, 50 × 0.5 mm, 2.7 µm, 35 °C, 0.01 mL/min, estimated dead time 0.62 min; A: water + 0.1% formic acid, pH 3; B: acetonitrile + 0.1% formic acid, pH 3; gradient (min/%B) 0/5 12/95 14/95 16/5
[3] = RP, Agilent ZORBAX Eclipse XDB-C18, 100 × 2.1 mm, 1.8 µm, 50 °C, 0.4 mL/min, estimated dead time 0.55 min; A: water + 0.1% formic acid, pH 3; B: methanol + 0.1% formic acid, pH 3; gradient (min/%B) 0/2 10/100 14.5/100 14.51/2 16.5/2
[4] = RP, Phenomenex Luna Omega Polar C18, 100 × 2.1 mm, 1.6 µm, 40 °C, 0.5 mL/min, estimated dead time 0.44 min; A: water + 0.1% formic acid + 10 mM ammonium formate; B: acetonitrile; gradient (min/%B) 0/5 8/20 10/100 12/100 12.1/5 14/5
[5] = RP, Phenomenex Luna Omega Polar C18, 100 × 2.1 mm, 1.6 µm, 40 °C, 0.5 mL/min, estimated dead time 0.44 min; A: water + 0.5% formic acid; B: acetonitrile + 0.5% formic acid; gradient (min/%B) 0/5 3/50 3.1/100 5/100 5.1/5 7/5
[6] = RP, Phenomenex Luna C18, 150 × 4.6 mm, 3 µm, 25 °C, 0.5 mL/min, estimated dead time 3.2 min; A: water + 0.1% formic acid, pH 3; B: acetonitrile + 0.1% formic acid, pH 3; gradient (min/%B) 0/0 30/30 35/40 50/80 52/80 60/0 65/0
[7] = RP, 100 × 0.5 mm, 2.7 µm, 45 °C, 0.015 mL/min, estimated dead time 0.83 min; A: water + 0.9% formic acid; B: acetonitrile + 0.9% formic acid; gradient (min/%B) 0/1 0.5/1 4/95 4.5/1 5/1
[8] = RP, Phenomenex Synergi Hydro-RP, 150 × 2 mm, 4 µm, 30 °C, 0.5 mL/min, estimated dead time 0.6 min; A: water + 0.1% formic acid, pH 3; B: acetonitrile + 0.1% formic acid, pH 3; gradient (min/%B) 0/5 1/5 35/45 40/100 45/100
[9] = RP, Merck Supelco SUPELCOSIL LC-C18, 250 × 4.6 mm, 5 µm, 40 °C, 1 mL/min, estimated dead time 2.6 min; A: water + 0.1% trifluoroacetic acid, pH 2; B: acetonitrile + 0.1% trifluoroacetic acid, pH 2; gradient (min/%B) 0/5 45/35 47/75 49/35 50/5
[10] = Other, Phenomenex Kinetex PFP, 100 × 4.6 mm, 2.6 µm, 35 °C, 1.5 mL/min, estimated dead time 0.71 min; A: water + 0.1% trifluoroacetic acid, pH 2; B: acetonitrile + 0.1% trifluoroacetic acid, pH 2; gradient (min/%B) 0/1 7/7.5 14/7.6 17/10 18.5/12 20/12.5 24/30 25/90 25.1/1 32/1
[11] = RP, Agilent InfinityLab Poroshell 120 EC-C18, 100 × 3 mm, 2.7 µm, 25 °C, 0.4 mL/min, estimated dead time 1.1 min; A: water + 0.1% formic acid, pH 3; B: acetonitrile + 0.1% formic acid, pH 3; gradient (min/%B) 0/5 10/25 20/40 24/90 25/90 26/5 30/5
[12] = Other, Phenomenex Kinetex PFP, 100 × 4.6 mm, 5 µm, 45 °C, 0.6 mL/min, estimated dead time 1.8 min; A: water + 0.1% trifluoroacetic acid, pH 2; B: methanol; gradient (min/%B) 0/40 20/72 21/40
[13] = RP, Phenomenex Synergi Hydro-RP, 250 × 2 mm, 4 µm, 25 °C, 0.2 mL/min, estimated dead time 2.5 min; A: water + 0.1% formic acid, pH 3; B: acetonitrile + 0.1% formic acid, pH 3; gradient (min/%B) 0/0.5 7/0.5 12/12.5 25/16.3 47/35 48/65 50/65 50.1/0.5
[14] = RP, Agilent ZORBAX RRHD Eclipse Plus C18, 50 × 2.1 mm, 1.8 µm, 30 °C, 0.4 mL/min, estimated dead time 0.28 min; A: water + 0.1% formic acid, pH 3; B: acetonitrile + 0.1% formic acid, pH 3; gradient (min/%B) 0/1 5/10 8/25 9.1/99 10/99 12/99
[15] = RP, Agilent ZORBAX RRHD Eclipse Plus C18, 50 × 2.1 mm, 1.8 µm, 30 °C, 0.4 mL/min, estimated dead time 0.28 min; A: water + 0.1% formic acid, pH 3; B: acetonitrile + 0.1% formic acid, pH 3; gradient (min/%B) 0/1 5/10 8/25 9.1/99 10/99 12/1
[16] = RP, Waters ACQUITY UPLC HSS T3, 100 × 2.1 mm, 1.8 µm, 30 °C, 0.4 mL/min, estimated dead time 0.55 min; A: water + 0.1% formic acid, pH 3; B: acetonitrile + 0.1% formic acid, pH 3; gradient (min/%B) 0/0 2/0 15/100 22/100 22.1/0 26/0
[17] = RP, Merck LiChrospher RP-18, 250 × 4 mm, 5 µm, 35 °C, 0.3 mL/min, estimated dead time 6.7 min; A: water + 0.5% formic acid; B: acetonitrile + 0.5% formic acid; gradient (min/%B) 0/5 10/5 30/15 45/20 65/20 95/54 110/63 115/5 135/5
[18] = RP, Waters ACQUITY UPLC HSS T3, 100 × 2.1 mm, 50 °C; A: water + 0.1% formic acid, pH 3; B: 30% methanol + 70% acetonitrile + 0.1% formic acid, pH 3; gradient (min/%B) 0/5 1/8 2/15 3/40 4/70 4.5/100 5/100 6.4/100 6.6/5 6.8/5 7/5
[19] = RP, Waters ACQUITY UPLC BEH C18, 100 × 2.1 mm, 1.7 µm, 65 °C, 0.4 mL/min, estimated dead time 0.55 min; A: water + 0.1% formic acid, pH 3; B: 80% acetonitrile + 20% acetone + 0.1% formic acid, pH 3; gradient (min/%B) 0/0 5/100 5.5/0 6/0
[20] = RP, Waters Atlantis T3, 100 × 2.1 mm, 3 µm, 40 °C, 0.3 mL/min, estimated dead time 0.73 min; A: water + 0.1% trifluoroacetic acid, pH 2; B: acetonitrile + 0.1% trifluoroacetic acid, pH 2; gradient (min/%B) 0/10 1/10 6/40 7/50 8/50 14/70 16/80 20/10 25/10
[21] = RP, Waters ACQUITY UPLC BEH Shield RP18, 150 × 2.1 mm, 1.7 µm, 40 °C, 0.4 mL/min, estimated dead time 0.83 min; A: water + 0.1% formic acid, pH 3; B: acetonitrile + 0.1% formic acid, pH 3; gradient (min/%B) 0/0 30/50 31/100 37/100 37.1/0
[22] = RP, 150 × 2.1 mm, 2.6 µm, 40 °C, 0.35 mL/min, estimated dead time 0.94 min; A: water + 0.1% formic acid, pH 3; B: acetonitrile + 0.1% formic acid, pH 3; gradient (min/%B) 0/0 1/0 12.5/100 14/100 14.2/0 15/0
[23] = RP, 150 × 2.1 mm, 2.6 µm, 40 °C, 0.35 mL/min, estimated dead time 0.94 min; A: water + 0.1% formic acid, pH 3; B: acetonitrile + 0.1% formic acid, pH 3; gradient (min/%B) 0/0 1/5 7/45 8.5/80 10.5/80 11/5 12/5

LC retention time [1] [min] | LC retention time [2] [min] | LC retention time [3] [min] | LC retention time [4] [min] | LC retention time [5] [min] | LC retention time [6] [min] | LC retention time [7] [min] | LC retention time [8] [min] | LC retention time [9] [min] | LC retention time [10] [min] | LC retention time [11] [min] | LC retention time [12] [min] | LC retention time [16] [min] | LC retention time [17] [min] | LC retention time [21] [min] | Compound | further results
11.5 | 3.43 | 3.7 | 4.95 | 1.99 | 15.9 | 2.32 | 11.3 | 16.8 |  |  |  |  |  |  | Oc1cc(O)c2c(c1)OC(c1ccc(O)c(O)c1)C(O)C2 (single isomer, unassigned; (-)) [(-)-Epicatechin] | 
 |  |  |  |  |  |  |  |  | 14.7 |  |  |  |  |  | O=Cc1ccc(O)cc1O [2,4-dihydroxybenzaldehyde] | 
 |  |  |  |  |  |  |  |  | 14.8 |  |  |  |  |  | Cc1cccc(C(=O)NCC(=O)O)c1 [3-methylhippuric acid] | 
 |  |  |  |  |  |  |  |  | 14.5 |  |  |  |  |  | Cc1ccc(C(=O)NCC(=O)O)cc1 [4-methylhippuric acid] | 
 |  |  |  |  |  |  |  |  | 22.1 |  |  |  |  |  | COc1cccc(O)c1C(=O)O [6-Methoxysalicyclic acid] | 
 |  | 3.52 |  | 3.17 |  | 3.19 |  | 29.1 |  | 5.63 | 10.8 |  |  |  | Oc1cc(O)c2cc(O)c(-c3ccc(O)c(O)c3)[o+]c2c1 [Cyanidin] | 
16.6 | 6.31 | 6.86 | 9.66 | 3.7 | 37.7 | 3.2 | 26.7 | 43.8 |  | 14.1 |  | 11.6 | 97.6 | 24.5 | O=c1c(O)c(-c2ccc(O)cc2)oc2cc(O)cc(O)c12 [Kaempferol] | LC retention time [13]: 52.3 min; LC retention time [14]: 9.29 min; LC retention time [15]: 9.16 min; LC retention time [18]: 3.88 min; LC retention time [19]: 3.02 min; LC retention time [20]: 10.2 min
15.3 | 5.79 | 6.42 | 9.48 | 3.57 | 42.1 | 2.97 | 22.6 |  |  | 17.1 | 18.6 | 10.8 | 91.1 | 20.2 | O=c1cc(-c2ccc(O)c(O)c2)oc2cc(O)cc(O)c12 [Luteolin] | LC retention time [13]: 47 min; LC retention time [18]: 3.75 min; LC retention time [22]: 7.14 min; LC retention time [23]: 7.52 min; LC retention time [20]: 9.3 min
 |  |  |  |  |  |  |  |  | 1.52 |  |  |  |  |  | O=C(O)CC(=O)O [Malonic acid] | 
 |  |  |  |  |  |  |  |  | 8.64 |  |  |  |  |  | COC(=O)c1cc(O)c(O)c(O)c1 [Methyl 3,4,5-trihydroxybenzoate] | 
 |  |  |  |  |  |  |  |  | 15.3 |  |  |  |  |  | COC(=O)c1ccc(O)c(O)c1 [Methyl 3,4-dihydroxybenzoate] | 
 |  | 5.37 |  |  |  |  |  |  | 23 |  |  |  |  |  | COC(=O)c1ccc(O)c(OC)c1 [Methyl vanillate] | 
14.7 | 5.18 | 5.24 | 9.3 | 2.96 | 38.8 | 2.88 | 20 | 31.6 |  | 14.7 | 10.8 | 10.4 | 85.7 | 17.9 | Oc1ccc(C=Cc2cc(O)cc(O)c2)cc1 [Resveratrol] | LC retention time [19]: 2.48 min
13.7 | 4.8 | 5.41 | 8.46 |  | 30 | 2.28 | 18.4 | 31 |  | 11.5 | 9.57 | 9.87 | 79.8 | 14.6 | O=C(C=Cc1ccc(O)c(O)c1)OC(Cc1ccc(O)c(O)c1)C(=O)O (stereo not given) [Rosmarinic acid] | LC retention time [13]: 39.2 min; LC retention time [20]: 8.18 min
10.1 | 3.51 | 4.06 | 5.38 | 2.44 | 21.1 | 2.71 |  |  |  | 8.04 | 6.9 | 9.32 | 54.7 | 7.83 | COc1cc(C=O)ccc1O [Vanillin] | LC retention time [18]: 3.46 min; LC retention time [19]: 2.03 min
